# In ChEMBL document CHEMBL5532678, “Comprehensive Insights that Targeting PIM for Cancer Therapy: Prospects and Obstacles” (J Med Chem, 2024):
# Assays:
# [1] = molecular target: T1, Serine/threonine-protein kinase pim-1 (Homo sapiens, UniProt P11309); test: Inhibition of human full length-His6 tagged PIM1 (1 to 312 residues) expressed in Escherichia coli BL21 (DE3) using RSRHSSYPAGT as peptide substrate incubated for 10 mins in presence of [gamma-32P]ATP by radiometric scintillation assay
# [2] = molecular target: T2, Serine/threonine-protein kinase pim-2 (Homo sapiens, UniProt Q9P1W9); test: Inhibition of human full length-His6 tagged PIM2 (1 to 311 residues) expressed in Escherichia coli BL21 (DE3) assessed as inhibition constant using RSRHSSYPAGT as peptide substrate incubated for 10 mins in presence of [gamma-32P]ATP by radiometric scintillation assay
# MCF7 [3] = test: Antiproliferative activity against human MCF7 cells assessed as reduction in cell growth incubated for 48 hrs by MTT assay; format: functional, cell-based; conditions: MCF7, 48 h
# HCT-116 = test: Antiproliferative activity against human HCT-116 cells assessed as inhibition of cell growth incubated for 24 hrs by MTT assay; format: functional, cell-based; conditions: HCT-116, 24 h
# [4] = molecular target: T1, Serine/threonine-protein kinase pim-1; test: Inhibition of human PIM1 by discoverX kinome scan assay
# [5] = molecular target: T1, Serine/threonine-protein kinase pim-1; test: Inhibition of human PIM1 using KKRNRTLTK as substrate in presence of [gamma-33P]-ATP by hotspot kinase assay
# [6] = molecular target: T1, Serine/threonine-protein kinase pim-1; test: Binding affinity to PIM1 (unknown origin) assessed as inhibition constant
# [7] = molecular target: T2, Serine/threonine-protein kinase pim-2; test: Binding affinity to PIM2 (unknown origin) assessed as inhibition constant
# [8] = Inhibition of PI3K (unknown origin); design: species or system Homo sapiens
# [9] = molecular target: Serine/threonine-protein kinase mTOR (Homo sapiens, UniProt P42345); test: Inhibition of mTOR (unknown origin)
# PC-3 = test: Anticancer activity against human PC-3 cells assessed as inhibition of cell growth incubated for 24 hrs by MTT assay; format: functional, cell-based; conditions: PC-3, 24 h
# HepG2 = test: Antiproliferative activity against human HepG2 cells assessed as inhibition of cell growth incubated for 72 hrs by MTT assay; format: functional, cell-based; conditions: HepG2, 72 h
# MCF7 [10] = test: Cytotoxicity against human MCF7 cells assessed as reduction in cell viability by MTT assay; format: functional, cell-based
# [11] = molecular target: Dual specificity protein kinase CLK1 (Homo sapiens, UniProt P49759); test: Inhibition of CLK1 (unknown origin) using GRSRSRSRSRSRSRS as substrate incubated for 15 mins in presence of ATP by gamma32P-ATP based analysis
# [12] = molecular target: T1, Serine/threonine-protein kinase pim-1
# [13] = molecular target: T2, Serine/threonine-protein kinase pim-2
# [14] = molecular target: T3, Serine/threonine-protein kinase pim-3 (Homo sapiens, UniProt Q86V86)
# [15] = molecular target: T1, Serine/threonine-protein kinase pim-1; test: Inhibition of PIM1 (unknown origin) by FRET based Z-LYTE kinase assay
# [16] = molecular target: T2, Serine/threonine-protein kinase pim-2; test: Inhibition of PIM2 (unknown origin) by FRET based Z-LYTE kinase assay
# [17] = molecular target: T3, Serine/threonine-protein kinase pim-3; test: Inhibition of PIM3 (unknown origin) by FRET based Z-LYTE kinase assay
# [18] = molecular target: T3, Serine/threonine-protein kinase pim-3; test: Inhibition of N-terminal GST-tagged full length human PIM3 (1 to 326 residues) expressed in baculovirus expression system using S6K2 peptide as substrate at 1 uM in presence of ATP by Mobility shift assay
smiles,measurement,setting,value
Cc1cccc(-c2c(-c3cccc(OC(F)(F)F)c3)cc3n2[C@@H](CCN)CNC3=O)c1,IC50,[1],7 nM
same,IC50,[2],25000 nM
COc1cc(C2NC(=O)c3sc4nc(C)c(Br)c(C)c4c3N2)ccc1O (stereo not drawn),IC50,MCF7 [3],460 nM
same,IC50,HCT-116,360 nM
N#Cc1nnc2c3c(-c4ccccc4Cl)c(C#N)c(=O)[nH]c3nn2c1N,IC50,[4],43000 nM
Fc1cncc(-c2ccc3[nH]c4ncnc(N[C@H]5CC[C@H](N6CCOCC6)CC5)c4c3c2)c1,IC50,[5],4.6 nM
CC(C)(C)Nc1nnc(-c2ccc3[nH]cc(-c4nccc(C5CC5)n4)c3c2)o1,Ki,[6],0.55 nM
same,Ki,[7],0.28 nM
COc1ncc2cc1NS(=O)(=O)c1cccc(c1)C(=O)NCc1cccc(c1)-c1ncnc3c1SC2=C3,IC50,[8],16.8 nM
same,IC50,[9],> 10000 nM
N#Cc1c(-c2ccco2)cc(-c2ccc(N3C(=O)c4ccccc4C3=O)cc2)nc1N,IC50,[4],630 nM
same,IC50,MCF7 [3],19700 nM
same,IC50,PC-3,33400 nM
same,IC50,HepG2,31100 nM
N#Cc1c(-c2ccccc2)cc(-c2ccccc2)nc1OCCCCC(=O)NO,IC50,[5],365 nM
Cc1nc2sc(C(=O)Nc3ccc(F)c(Cl)c3)c(N)c2c(C)c1Br,IC50,MCF7 [10],75900 nM
same,IC50,[4],35700 nM
NC(=O)c1c(O)cc(O)c2c1oc1cc(O)ccc12,IC50,[11],26 nM
CC(C)(O)[C@H]1CC[C@H](Nc2ccc3ncc(-c4cccc(C(F)(F)F)c4)n3n2)CC1 [NUVISERTIB],IC50,[12],5 nM
same,IC50,[13],239 nM
same,IC50,[14],42 nM
COc1ncc2cc1NS(=O)(=O)c1ccc(F)c(c1)C(=O)NCC1=CC=C(S1)c1ncnc3c1SC2=C3C,IC50,[8],0.13 nM
same,IC50,[9],74500 nM
CC(C)n1c(C2CCNCC2)nc2c([N+](=O)[O-])c(Br)c(Br)cc21 [DAPOLSERTIB],IC50,[12],2 nM
same,IC50,[13],2 nM
same,IC50,[14],3 nM
CN1CCN(c2ccc(-n3cnc4ccc(/C=C5\SC(=S)NC5=O)cc43)cc2)CC1,IC50,[15],16000 nM
same,IC50,[16],16000 nM
same,IC50,[17],6400 nM
COc1ccc(/C=C/C(/C=C2/C(=O)Nc3cc(Br)ccc32)=N/O)cc1,IC50,[1],470 nM
same,IC50,[2],220 nM
same,IC50,[18],360 nM
N#Cc1c(-c2ccccc2)cc(-c2ccccc2)nc1OCC(=O)NO,IC50,[5],427 nM
